Results taken from ChEMBL document CHEMBL5113408, “Design, synthesis and antitumour activity of novel 5(6)-amino-benzimidazolequinones containing a fused morpholine” (Eur J Med Chem, 2022).
Active and inactive are the calls of the source. No cut-off for these calls is given here.

What was measured:
[1] = tested on: HGC-27; assay: Induction of mitochondrial membrane depolarization in human HGC-27 cells incubated for 48 hrs by flow cytometry analysis; assay type: functional, cell-based; conditions: dose 1-4 µM, DDE = dose-dependent effect
[2] = tested on: HGC-27; assay: Antiproliferative activity against human HGC-27 cells assessed as inhibition of cell growth at 0.25 to 8 uM by SRB assay; assay type: functional, cell-based; conditions: dose 0.25-8 µM, time 24-72 hrs, TDE = time-dependent effect
[3] = tested on: HGC-27; assay: Induction of cell cycle arrest in human HGC-27 cells assessed as accumulation of cells at G2/M phase at 2 uM incubated for 36 hrs by PI staining based flow cytometry analysis (reference value: 26.2%); assay type: functional
[4] = tested on: MGC-803; assay: Induction of apoptosis in human MGC-803 cells assessed as increase in cleaved caspase 9 protein expression level at 1 to 4 uM incubated for 48 hrs by Western blot analysis; assay type: functional, cell-based; conditions: dose 1-4 µM
[5] = tested on: HGC-27; assay: Induction of apoptosis in human HGC-27 cells assessed as decrease in caspase 3 protein expression level at 1 to 4 uM incubated for 48 hrs by Western blot analysis; assay type: functional, cell-based; conditions: dose 1-4 µM
[6] = tested on: HGC-27; assay: Induction of apoptosis in human HGC-27 cells assessed as decrease in caspase 9 protein expression level at 1 to 4 uM incubated for 48 hrs by Western blot analysis; assay type: functional, cell-based; conditions: dose 1-4 µM
[7] = Toxicity in BALB/c mouse xenografted with human MGC-803 cells assessed as effect on ALT level at 10 to 20 mg/kg, ip administered once every two days; assay type: organism-based; conditions: in vivo, dose 10-20 mg/kg
[8] = tested on: MGC-803; assay: Induction of DNA damage in human MGC-803 cells assessed as appearance of longer comet tail at 4 uM; assay type: functional, cell-based
[9] = tested on: MGC-803; assay: Antiproliferative activity against human MGC-803 cells assessed as inhibition of cell growth incubated for 24 to 72 hrs by SRB assay; assay type: functional, cell-based; conditions: dose 0.25-8 µM, time 24-72 hrs, DDE = dose-dependent effect
[10] = tested on: HGC-27; assay: Antiproliferative activity against human HGC-27 cells assessed as inhibition of cell growth incubated for 24 to 72 hrs by SRB assay; assay type: functional, cell-based; conditions: dose 0.25-8 µM, time 24-72 hrs, DDE = dose-dependent effect
[11] = tested on: MGC-803; assay: Activation of ROS/JNK signalling in human MGC-803 cells assessed as increase in p-ASK1 level by Western blot analysis; assay type: cell-based; conditions: filed as activator, dose 1-4 µM, DDE = dose-dependent effect
[12] = Toxicity in BALB/c mouse xenografted with human MGC-803 cells assessed as effect on uric acid level at 10 to 20 mg/kg, ip administered once every two days; assay type: organism-based; conditions: in vivo, dose 10-20 mg/kg
[13] = tested on: MGC-803; assay: Antitumor activity against human MGC-803 cells xenografted with BALB/c mouse assessed as reduction in tumor weight at 10 to 20 mg/kg, ip administered once every two days; assay type: functional, organism-based; conditions: dose 10-20 mg/kg
[14] = Toxicity in BALB/c mouse xenografted with human MGC-803 cells assessed as effect on creatinine level at 10 to 20 mg/kg, ip administered once every two days; assay type: organism-based; conditions: in vivo, dose 10-20 mg/kg
[15] = tested on: HGC-27; assay: Induction of cell cycle arrest in human HGC-27 cells assessed as accumulation of cells at S phase at 4 uM incubated for 36 hrs by PI staining based flow cytometry analysis (reference value: 8.87%); assay type: functional
[16] = tested on: MGC-803; assay: Antitumor activity against human MGC-803 cells xenografted with BALB/c mouse assessed as vacuolated cytoplasm at 10 to 20 mg/kg, ip administered once every two days; assay type: functional, organism-based; conditions: dose 10-20 mg/kg
[17] = tested on: MGC-803; assay: Induction of mitochondrial membrane depolarization in human MGC-803 cells incubated for 48 hrs by flow cytometry analysis; assay type: functional, cell-based; conditions: dose 1-4 µM, DDE = dose-dependent effect
[18] = tested on: HGC-27; assay: Induction of cell cycle arrest in human HGC-27 cells assessed as decrease in p-cdc25c level at 1 to 4 uM by Western blot analysis; assay type: functional, cell-based; conditions: dose 1-4 µM
[19] = tested on: MGC-803; assay: Induction of apoptosis in human MGC-803 cells assessed as decrease in caspase 9 protein expression level at 1 to 4 uM incubated for 48 hrs by Western blot analysis; assay type: functional, cell-based; conditions: dose 1-4 µM

## Cc1ccc(NC2=CC(=O)c3nc4n(c3C2=O)[C@H]2OC[C@@H](O)[C@H]2OC4)cc1C
[1]
  Activity: Dde
[2]
  Activity: Tde
[3]
  Activity: 32.3%
[4]
  Activity: Active
[5]
  Activity: Active
[6]
  Activity: Active
[7]
  Activity: Non-Toxic
[8]
  Activity: Active
[9]
  Activity: Dde
[10]
  Activity: Dde
[11]
  Activity: Dde
[12]
  Activity: Non-Toxic
[13]
  Activity: Active
[14]
  Activity: Non-Toxic
[15]
  Activity: 14.4%
[16]
  Activity: Active
[17]
  Activity: Dde
[18]
  Activity: Active
[19]
  Activity: Active
